Tests used:
[1] = Tolerability of fluralaner via medicated drinking water in hens; format: in vivo, laying hens; details: 2, 1, 0.5 mg/kg BW once or 2 × 0.5 mg/kg BW via medicated drinking water
Experimental: (§1) Groups A-D (n=6) were treated with doses of 2, 1 and 0.5 mg fluralaner/kg BW once or 1 mg fluralaner/kg BW split dose (0.5 mg/kg BW on 2 occasions).
(§2) On D0 (group D additionally on D7), the hens in groups A-D received fluralaner via medicated drinking water. Group E received un-medicated drinking water ad libitum.

Dermanyssus gallinae = assay: Efficacy of fluralaner via medicated drinking water against artificially induced poultry red mite infestations of laying hens; format: in vivo; details: for % Inhibition of mites 24 hours after infestation / % Mortality of mites 24 hours after infestation: laying hens
Experimental: as §1
Drinking water consumption in each was measured on three days prior to administration to calculate the average daily water consumption. Medicated water was prepared by diluting a fluralaner solution (10 mg/mL) as shown in the table below to the calculated fluralaner concentration.
as §2
The dose to be administered was calculated based on average body weights of each treatment group, obtained one day before treatment (D-1, D6). A fluralaner stock solution was diluted in the drinking water to prepare medicated water ready for consumption.
The volume of medicated water offered per group on D0 (group D also on D7) was approximately 50% of the calculated mean daily water intake measured previously in the respective group in order to ensure consumption of the full dose.
Once all medicated water was consumed the other 50% volume of the mean daily water intake was supplied as tap water in the same drinker.
On Day 1, Day 5, Day 8, Day 12, D15, D19 and D22 four of six hens per group were infested with approximately 200 vital, D. gallinae mites (unfed nymphs and adults that starved before infestation for 7 days).
From each infested hen approximately 25 engorged mites were collected and incubated for approximately 24 hours. The dead, damaged and/or live mites were counted visually using a binocular.
Mites were classified as dead if no movement was determined or mites lay in a dorsal position. Mites were classified as damaged if their movement was uncoordinated.
The Mite Mortality and Mite Inhibition percentage was calculated for each treated group in comparison to a not-treated negative control group.

[2] = Group A, 2 mg/kg BW once (D0) via drinking water, infestation on D1
[3] = Group A, 2 mg/kg BW once (D0) via drinking water, infestation on D5
[4] = Group A, 2 mg/kg BW once (D0) via drinking water, infestation on D8
[5] = Group A, 2 mg/kg BW once (D0) via drinking water, infestation on D12
[6] = Group A, 2 mg/kg BW once (D0) via drinking water, infestation on D15
[7] = Group A, 2 mg/kg BW once (D0) via drinking water, infestation on D19
[8] = Group A, 2 mg/kg BW once (D0) via drinking water, infestation on D22
[9] = Group B, 1 mg/kg BW once (D0) via drinking water, infestation on D1
[10] = Group B, 1 mg/kg BW once (D0) via drinking water, infestation on D5
[11] = Group B, 1 mg/kg BW once (D0) via drinking water, infestation on D8
[12] = Group B, 1 mg/kg BW once (D0) via drinking water, infestation on D12
[13] = Group B, 1 mg/kg BW once (D0) via drinking water, infestation on D15
[14] = Group B, 1 mg/kg BW once (D0) via drinking water, infestation on D19
[15] = Group B, 1 mg/kg BW once (D0) via drinking water, infestation on D22
[16] = Group C, 0.5 mg/kg BW once (D0) via drinking water, infestation on D1
[17] = Group C, 0.5 mg/kg BW once (D0) via drinking water, infestation on D5
[18] = Group C, 0.5 mg/kg BW once (D0) via drinking water, infestation on D8
[19] = Group C, 0.5 mg/kg BW once (D0) via drinking water, infestation on D12
[20] = Group C, 0.5 mg/kg BW once (D0) via drinking water, infestation on D15
[21] = Group C, 0.5 mg/kg BW once (D0) via drinking water, infestation on D19
[22] = Group C, 0.5 mg/kg BW once (D0) via drinking water, infestation on D22
[23] = Group D, 1 (2 × 0.5) mg/kg BW split dose on D0 and D7 via drinking water, infestation on D1
[24] = Group D, 1 (2 × 0.5) mg/kg BW split dose on D0 and D7 via drinking water, infestation on D5
[25] = Group D, 1 (2 × 0.5) mg/kg BW split dose on D0 and D7 via drinking water, infestation on D8
[26] = Group D, 1 (2 × 0.5) mg/kg BW split dose on D0 and D7 via drinking water, infestation on D12
[27] = Group D, 1 (2 × 0.5) mg/kg BW split dose on D0 and D7 via drinking water, infestation on D15
[28] = Group D, 1 (2 × 0.5) mg/kg BW split dose on D0 and D7 via drinking water, infestation on D19
[29] = Group D, 1 (2 × 0.5) mg/kg BW split dose on D0 and D7 via drinking water, infestation on D22

Cc1cc(C2=NOC(c3cc(Cl)cc(Cl)c3)(C(F)(F)F)C2)ccc1C(=O)NCC(=O)NCC(F)(F)F (stereo not shown) [fluralaner, 4-[5-(3,5-Dichlorophenyl)-5-trifluoromethyl-4,5-dihydroisoxazol-3-yl]-2-methyl-N-[(2,2,2-trifluoro-ethylcarbamoyl)-methyl]-benzamide]
Tolerability in hens [1]: well tolerated
% Inhibition of mites 24 hours after infestation (Dermanyssus gallinae; [2]): 100%
% Mortality of mites 24 hours after infestation (Dermanyssus gallinae; [2]): 100%
% Inhibition of mites 24 hours after infestation (Dermanyssus gallinae; [3]): 100%
% Mortality of mites 24 hours after infestation (Dermanyssus gallinae; [3]): 100%
% Inhibition of mites 24 hours after infestation (Dermanyssus gallinae; [4]): 100%
% Mortality of mites 24 hours after infestation (Dermanyssus gallinae; [4]): 100%
% Inhibition of mites 24 hours after infestation (Dermanyssus gallinae; [5]): 100%
% Mortality of mites 24 hours after infestation (Dermanyssus gallinae; [5]): 100%
% Inhibition of mites 24 hours after infestation (Dermanyssus gallinae; [6]): 81%
% Mortality of mites 24 hours after infestation (Dermanyssus gallinae; [6]): 77%
% Inhibition of mites 24 hours after infestation (Dermanyssus gallinae; [7]): 14%
% Mortality of mites 24 hours after infestation (Dermanyssus gallinae; [7]): 1%
% Inhibition of mites 24 hours after infestation (Dermanyssus gallinae; [8]): 0%
% Mortality of mites 24 hours after infestation (Dermanyssus gallinae; [8]): 0%
% Inhibition of mites 24 hours after infestation (Dermanyssus gallinae; [9]): 100%
% Mortality of mites 24 hours after infestation (Dermanyssus gallinae; [9]): 100%
% Inhibition of mites 24 hours after infestation (Dermanyssus gallinae; [10]): 100%
% Mortality of mites 24 hours after infestation (Dermanyssus gallinae; [10]): 100%
% Inhibition of mites 24 hours after infestation (Dermanyssus gallinae; [11]): 100%
% Mortality of mites 24 hours after infestation (Dermanyssus gallinae; [11]): 100%
% Inhibition of mites 24 hours after infestation (Dermanyssus gallinae; [12]): 95%
% Mortality of mites 24 hours after infestation (Dermanyssus gallinae; [12]): 94%
% Inhibition of mites 24 hours after infestation (Dermanyssus gallinae; [13]): 81%
% Mortality of mites 24 hours after infestation (Dermanyssus gallinae; [13]): 77%
% Inhibition of mites 24 hours after infestation (Dermanyssus gallinae; [14]): 3%
% Mortality of mites 24 hours after infestation (Dermanyssus gallinae; [14]): 2%
% Inhibition of mites 24 hours after infestation (Dermanyssus gallinae; [15]): 0%
% Mortality of mites 24 hours after infestation (Dermanyssus gallinae; [15]): 0%
% Inhibition of mites 24 hours after infestation (Dermanyssus gallinae; [16]): 100%
% Mortality of mites 24 hours after infestation (Dermanyssus gallinae; [16]): 100%
% Inhibition of mites 24 hours after infestation (Dermanyssus gallinae; [17]): 100%
% Mortality of mites 24 hours after infestation (Dermanyssus gallinae; [17]): 100%
% Inhibition of mites 24 hours after infestation (Dermanyssus gallinae; [18]): 100%
% Mortality of mites 24 hours after infestation (Dermanyssus gallinae; [18]): 97%
% Inhibition of mites 24 hours after infestation (Dermanyssus gallinae; [19]): 75%
% Mortality of mites 24 hours after infestation (Dermanyssus gallinae; [19]): 55%
% Inhibition of mites 24 hours after infestation (Dermanyssus gallinae; [20]): 19%
% Mortality of mites 24 hours after infestation (Dermanyssus gallinae; [20]): 15%
% Inhibition of mites 24 hours after infestation (Dermanyssus gallinae; [21]): 0%
% Mortality of mites 24 hours after infestation (Dermanyssus gallinae; [21]): 0%
% Inhibition of mites 24 hours after infestation (Dermanyssus gallinae; [22]): 0%
% Mortality of mites 24 hours after infestation (Dermanyssus gallinae; [22]): 0%
% Inhibition of mites 24 hours after infestation (Dermanyssus gallinae; [23]): 100%
% Mortality of mites 24 hours after infestation (Dermanyssus gallinae; [23]): 100%
% Inhibition of mites 24 hours after infestation (Dermanyssus gallinae; [24]): 100%
% Mortality of mites 24 hours after infestation (Dermanyssus gallinae; [24]): 100%
% Inhibition of mites 24 hours after infestation (Dermanyssus gallinae; [25]): 100%
% Mortality of mites 24 hours after infestation (Dermanyssus gallinae; [25]): 100%
% Inhibition of mites 24 hours after infestation (Dermanyssus gallinae; [26]): 100%
% Mortality of mites 24 hours after infestation (Dermanyssus gallinae; [26]): 100%
% Inhibition of mites 24 hours after infestation (Dermanyssus gallinae; [27]): 99%
% Mortality of mites 24 hours after infestation (Dermanyssus gallinae; [27]): 98%
% Inhibition of mites 24 hours after infestation (Dermanyssus gallinae; [28]): 66%
% Mortality of mites 24 hours after infestation (Dermanyssus gallinae; [28]): 59%
% Inhibition of mites 24 hours after infestation (Dermanyssus gallinae; [29]): 27%
% Mortality of mites 24 hours after infestation (Dermanyssus gallinae; [29]): 14%
Onset of action against red mites (Dermanyssus gallinae; all administered doses, orally via drinking water): fast onset of action
